Assay results: ChEMBL document CHEMBL4184120, “Target ROS to induce apoptosis and cell cycle arrest by 5,7-dimethoxy-1,4-naphthoquinone derivative” (Bioorg Med Chem Lett, 2018)
pIC50: −log10 of the molar value. One block for each compound: values may come before it. The source made the active and inactive calls. No cut-off for these calls is given here.

Assays:
A549 = experiment: Antiproliferative activity against human A549 cells after 48 hrs by MTT assay; type: functional, cell-based; conditions: A549, 48 h
NCI-H460 = experiment: Antiproliferative activity against human NCI-H460 cells after 48 by hrs MTT assay; type: functional, cell-based
HeLa = experiment: Antiproliferative activity against human HeLa cells after 48 hrs by MTT assay; type: functional, cell-based
HL-60 [1] = experiment: Antiproliferative activity against human HL60 cells after 48 hrs by MTT assay; type: functional, cell-based; conditions: HL-60, 48 h
HepG2 = experiment: Antiproliferative activity against human HepG2 cells after 48 hrs by MTT assay; type: functional, cell-based; conditions: HepG2, 48 h
HL-60 [2] = experiment: Induction of apoptosis in human HL60 cells assessed as late apoptotic cells at 1 uM after 48 hrs by Annexin V-FITC/propidium iodide staining based flow cytometry (reference value: 1.23%); type: functional
K562 = experiment: Antiproliferative activity against human K562 cells after 48 hrs by MTT assay; type: functional, cell-based; conditions: K562, 48 h
HL-60 [3] = experiment: Induction of ROS generation in human HL60 cells at 4 uM incubated for 6 hrs starting from 1 hr post antioxidant NAC addition by DCFH-DA staining-based fluorescence microscopic analysis; type: functional, cell-based
HL-60 [4] = experiment: Cell cycle arrest in human HL60 cells assessed as accumulation at G0/G1 phase at 4 uM after 48 hrs by propidium iodide staining based assay (reference value: 50.88%); type: functional
[5] = Selectivity index, ratio of IC50 for human WI38 cells to IC50 for human HL60 cells; type: toxicity; conditions: WI38 cells and HL60 cells, read-out: Ratio IC50
HL-60 [6] = experiment: Induction of apoptosis in human HL60 cells assessed as early apoptotic cells at 2 uM after 48 hrs by Annexin V-FITC/propidium iodide staining based flow cytometry (reference value: 3.13%); type: functional
HL-60 [7] = experiment: Induction of apoptosis in human HL60 cells assessed as early apoptotic cells at 4 uM after 48 hrs by Annexin V-FITC/propidium iodide staining based flow cytometry (reference value: 3.13%); type: functional
HL-60 [8] = experiment: Induction of apoptosis in human HL60 cells assessed as necrotic cells after 48 hrs by Annexin V-FITC/propidium iodide staining based flow cytometry; type: functional, cell-based
HL-60 [9] = experiment: Induction of apoptosis in human HL60 cells assessed as early apoptotic cells at 1 uM after 48 hrs by Annexin V-FITC/propidium iodide staining based flow cytometry (reference value: 3.13%); type: functional
HL-60 [10] = experiment: Induction of apoptosis in human HL60 cells assessed as nuclear fragmentation after 24 hrs by Hoechst-33342 staining-based fluorescence microscopic analysis; type: functional, cell-based
HL-60 [11] = experiment: Induction of apoptosis in human HL60 cells assessed as late apoptotic cells at 2 uM after 48 hrs by Annexin V-FITC/propidium iodide staining based flow cytometry (reference value: 1.23%); type: functional
HL-60 [12] = experiment: Induction of apoptosis in human HL60 cells assessed as late apoptotic cells at 4 uM incubated for 48 hrs starting from 1 hr post antioxidant NAC addition by Annexin V-FITC/propidium iodide staining based flow cytometry (reference value: 1.23%); type: functional
HL-60 [13] = experiment: Cell cycle arrest in human HL60 cells assessed as accumulation at S phase at 1 uM after 48 hrs by propidium iodide staining based assay (reference value: 46.44%); type: functional
[14] = Redox potential of the compound in pH 7.4 PBS buffer assessed as oxidation potential at 0.4 mM by cyclic voltametry; type: physicochemical; conditions: pH 7.4, 400 µM
HL-60 [15] = experiment: Induction of apoptosis in human HL60 cells assessed as condensed nuclei formation at 4 uM preincubated for 1 hr with antioxidant NAC measured after 24 hrs by Hoechst-33342 staining-based fluorescence microscopic analysis; type: functional, cell-based
HL-60 [16] = experiment: Cell cycle arrest in human HL60 cells assessed as accumulation at S phase at 4 uM incubated for 48 hrs starting from 1 hr post antioxidant NAC addition by propidium iodide staining based assay (reference value: 46.44%); type: functional
HL-60 [17] = experiment: Induction of apoptosis in human HL60 cells assessed as early apoptotic cells at 4 uM incubated for 48 hrs starting from 1 hr post antioxidant NAC addition by Annexin V-FITC/propidium iodide staining based flow cytometry (reference value: 3.13%); type: functional
HL-60 [18] = experiment: Cell cycle arrest in human HL60 cells assessed as accumulation at G0/G1 phase at 4 uM incubated for 48 hrs starting from 1 hr post antioxidant NAC addition by propidium iodide staining based assay (reference value: 50.88%); type: functional
HL-60 [19] = experiment: Cell cycle arrest in human HL60 cells assessed as accumulation at G2/M phase at 4 uM after 48 hrs by propidium iodide staining based assay (reference value: 2.68%); type: functional
HL-60 [20] = experiment: Cell cycle arrest in human HL60 cells assessed as accumulation at G2/M phase at 2 uM after 48 hrs by propidium iodide staining based assay (reference value: 2.68%); type: functional
HL-60 [21] = experiment: Induction of apoptosis in human HL60 cells assessed as nuclear fragmentation at 4 uM preincubated for 1 hr with antioxidant NAC measured after 24 hrs by Hoechst-33342 staining-based fluorescence microscopic analysis; type: functional, cell-based
HL-60 [22] = experiment: Induction of apoptosis in human HL60 cells assessed as late apoptotic cells at 4 uM after 48 hrs by Annexin V-FITC/propidium iodide staining based flow cytometry (reference value: 1.23%); type: functional
HL-60 [23] = experiment: Induction of apoptosis in human HL60 cells assessed as late apoptotic cells after 48 hrs by Annexin V-FITC/propidium iodide staining based flow cytometry; type: functional, cell-based
HL-60 [24] = experiment: Cell cycle arrest in human HL60 cells assessed as accumulation at S phase at 4 uM after 48 hrs by propidium iodide staining based assay (reference value: 46.44%); type: functional
HL-60 [25] = experiment: Cell cycle arrest in human HL60 cells assessed as accumulation at G0/G1 phase at 1 uM after 48 hrs by propidium iodide staining based assay (reference value: 50.88%); type: functional
WI-38 = experiment: Antiproliferative activity against human WI38 cells after 48 hrs by MTT assay; type: cell-based; conditions: WI-38, 48 h
HL-60 [26] = experiment: Cell cycle arrest in human HL60 cells assessed as accumulation at G0/G1 phase at 2 uM after 48 hrs by propidium iodide staining based assay (reference value: 50.88%); type: functional
HL-60 [27] = experiment: Cell cycle arrest in human HL60 cells assessed as accumulation at G2/M phase at 1 uM after 48 hrs by propidium iodide staining based assay (reference value: 2.68%); type: functional
HL-60 [28] = experiment: Induction of apoptosis in human HL60 cells assessed as condensed nuclei formation after 24 hrs by Hoechst-33342 staining-based fluorescence microscopic analysis; type: functional, cell-based
HL-60 [29] = experiment: Cell cycle arrest in human HL60 cells assessed as accumulation at G2/M phase at 4 uM incubated for 48 hrs starting from 1 hr post antioxidant NAC addition by propidium iodide staining based assay (reference value: 2.68%); type: functional
[30] = Selectivity ratio of IC50 for human K562 cells to IC50 for human HL60 cells; type: functional
[31] = Redox potential of the compound in pH 7.4 PBS buffer assessed as reduction potential at 0.4 mM by cyclic voltametry; type: physicochemical; conditions: pH 7.4, 400 µM
HL-60 [32] = experiment: Cell cycle arrest in human HL60 cells assessed as accumulation at S phase at 2 uM after 48 hrs by propidium iodide staining based assay (reference value: 46.44%); type: functional
[33] = Redox potential of the compound in pH 7.4 PBS buffer assessed as half wave potential at 0.4 mM by cyclic voltametry; type: physicochemical; conditions: pH 7.4, 400 µM
HL-60 [34] = experiment: Induction of apoptosis in human HL60 cells assessed as early apoptotic cells after 48 hrs by Annexin V-FITC/propidium iodide staining based flow cytometry; type: functional, cell-based
HL-60 [35] = experiment: Induction of ROS generation in human HL60 cells after 6 hrs by DCFH-DA staining-based fluorescence microscopic analysis; type: functional, cell-based

- pIC50 (A549): 4.10
- pIC50 (NCI-H460): < 4.00
- pIC50 (HeLa): < 4.00
- pIC50 (HL-60 [1]): < 4.00
- pIC50 (HepG2): < 4.00
Compound: CCCC1=C(O)C(=O)c2cc(OC)cc(OC)c2C1=O

- pIC50 (A549): 4.62
- pIC50 (K562): 4.49
- pIC50 (NCI-H460): 4.41
- Activity [14]: -0.169 V
- pIC50 (HeLa): 4.65
- pIC50 (HL-60 [1]): 5.42
- pIC50 (HepG2): 4.64
- Activity [31]: -0.235 V
- Activity [33]: -0.202 V
Compound: CCCCC1=C(Cl)C(=O)c2cc(OC)cc(OC)c2C1=O
- Activity (HL-60 [2]): 14.9%
- Activity (HL-60 [3]): inactive
- Activity (HL-60 [4]): 18.18%
- selectivity ratio [5]: 10.7
- Activity (HL-60 [6]): 7.35%
- Activity (HL-60 [7]): 26.6%
- Activity (HL-60 [8]): Dose-dependent effect
- Activity (HL-60 [9]): 4.48%
- Activity (HL-60 [10]): Dose-dependent effect
- Activity (HL-60 [11]): 20.9%
- Activity (HL-60 [12]): 6.78%
- Activity (HL-60 [13]): 51.13%
- Activity (HL-60 [15]): Active
- Activity (HL-60 [16]): 43.67%
- Activity (HL-60 [17]): 2.08%
- Activity (HL-60 [18]): 48.52%
- Activity (HL-60 [19]): 31.93%
- Activity (HL-60 [20]): 17.69%
- Activity (HL-60 [21]): Active
- Activity (HL-60 [22]): 40.4%
- Activity (HL-60 [23]): Dose-dependent effect
- Activity (HL-60 [24]): 49.89%
- Activity (HL-60 [25]): 35.72%
- pIC50 (WI-38): 4.39
- Activity (HL-60 [26]): 34.89%
- Activity (HL-60 [27]): 13.15%
- Activity (HL-60 [28]): Dose-dependent effect
- Activity (HL-60 [29]): 7.8%
- Ratio IC50 [30]: 8
- Activity (HL-60 [32]): 47.42%
- Activity (HL-60 [34]): Dose-dependent effect
- Activity (HL-60 [35]): Dose-dependent effect

- pIC50 (A549): < 4.00
- pIC50 (NCI-H460): < 4.00
- pIC50 (HeLa): < 4.00
- pIC50 (HL-60 [1]): 4.02
- pIC50 (HepG2): 4.02
Compound: COc1cc(OC)c2c(c1)C(=O)C(O)=C(CCc1ccccc1)C2=O

- pIC50 (A549): < 4.00
- pIC50 (NCI-H460): < 4.00
- pIC50 (HeLa): 4.02
- pIC50 (HL-60 [1]): < 4.00
- pIC50 (HepG2): < 4.00
Compound: CCC1=C(O)C(=O)c2cc(OC)cc(OC)c2C1=O

- pIC50 (A549): < 4.00
- pIC50 (NCI-H460): < 4.00
- pIC50 (HeLa): < 4.00
- pIC50 (HL-60 [1]): < 4.00
- pIC50 (HepG2): 4.04
Compound: CCCCCCC1=C(O)C(=O)c2cc(OC)cc(OC)c2C1=O

- pIC50 (A549): < 4.00
- pIC50 (NCI-H460): < 4.00
- pIC50 (HeLa): < 4.00
- pIC50 (HL-60 [1]): < 4.00
- pIC50 (HepG2): < 4.00
Compound: COc1cc(OC)c2c(c1)C(=O)C(O)=CC2=O

- pIC50 (A549): < 4.00
- pIC50 (NCI-H460): < 4.00
- pIC50 (HeLa): < 4.00
- pIC50 (HL-60 [1]): < 4.00
- pIC50 (HepG2): < 4.00
Compound: CCCCCCCCC1=C(O)C(=O)c2cc(OC)cc(OC)c2C1=O

- pIC50 (A549): < 4.00
- pIC50 (NCI-H460): 4.12
- Activity [14]: -0.187 V
- pIC50 (HeLa): 4.28
- pIC50 (HL-60 [1]): 4.21
- pIC50 (HepG2): 4.25
- Activity [31]: -0.311 V
- Activity [33]: -0.249 V
Compound: CCCCC1=C(OC)C(=O)c2cc(OC)cc(OC)c2C1=O

- pIC50 (A549): < 4.00
- pIC50 (NCI-H460): < 4.00
- pIC50 (HeLa): < 4.00
- pIC50 (HL-60 [1]): < 4.00
- pIC50 (HepG2): 4.14
Compound: COc1cc(OC)c2c(c1)C(=O)C(O)=C(CCc1ccc(Br)cc1)C2=O

- pIC50 (A549): 4.20
- pIC50 (K562): 4.52
- pIC50 (NCI-H460): 4.21
- pIC50 (HeLa): 4.67
- pIC50 (HL-60 [1]): 5.04
- pIC50 (HepG2): 4.38
Compound: COc1cc(OC)c2c(c1)C(=O)C(Cl)=C(CCC1CCCCC1)C2=O
- selectivity ratio [5]: 3.7
- pIC50 (WI-38): 4.47

- pIC50 (A549): < 4.00
- pIC50 (NCI-H460): < 4.00
- pIC50 (HeLa): 4.04
- pIC50 (HL-60 [1]): < 4.00
- pIC50 (HepG2): < 4.00
Compound: COc1cc(OC)c2c(c1)C(=O)C(O)=C(C)C2=O
